According to PMC10897196, “Structure–activity characteristics of phenylalanine analogs selectively transported by L-type amino acid transporter 1 (LAT1)” (Scientific Reports, 2024):
Like-named read-outs stand apart in the source and are kept apart here.

How the values were obtained:
[1] = target: T1, human LAT1 (Homo sapiens, UniProt Q01650); assay: Inhibition of L-[14C]leucine uptake in HEK293-hLAT1 cells; type: cell-based; conditions: for Ki: L-[14C]leucine uptake
T1 construct: expressed in transfected cells
T1 sequence (Q01650 whole entry, one chain of several): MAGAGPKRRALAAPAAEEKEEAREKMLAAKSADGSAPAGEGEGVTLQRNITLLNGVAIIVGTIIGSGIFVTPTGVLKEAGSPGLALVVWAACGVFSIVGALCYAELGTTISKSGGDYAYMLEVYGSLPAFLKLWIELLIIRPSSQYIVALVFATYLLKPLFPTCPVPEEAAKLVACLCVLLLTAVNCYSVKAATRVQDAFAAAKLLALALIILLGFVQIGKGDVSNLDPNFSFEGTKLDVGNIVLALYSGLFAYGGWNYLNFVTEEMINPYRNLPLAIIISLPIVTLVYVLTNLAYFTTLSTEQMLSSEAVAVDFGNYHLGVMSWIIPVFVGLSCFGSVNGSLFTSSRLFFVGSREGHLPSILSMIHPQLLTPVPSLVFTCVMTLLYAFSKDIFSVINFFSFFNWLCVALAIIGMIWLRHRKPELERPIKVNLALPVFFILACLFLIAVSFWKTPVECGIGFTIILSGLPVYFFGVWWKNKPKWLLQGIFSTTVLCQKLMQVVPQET
Excerpt: (§1) In this study, we used the HEK293 cells stably expressing human LAT1 or human LAT2, which form a heterodimeric complex with endogenous 4F2hc (CD98hc), required for plasma membrane localization. We first explored the impact of halogen group positioning in the benzene ring of Phe (Fig. 1) on its interaction with LAT1 and LAT2. […] We conducted inhibition experiments to measure the uptake of L-[^14C]leucine by LAT1 and L-[^14C]alanine by LAT2 in the presence or absence of Phe derivatives with an iodo group at position 2, 3, or 4 in the benzene ring.
(§2) The inhibition experiments were performed as described previously. HEK293-hLAT1 (1.5 × 10^5 cells/well) or HEK293-hLAT2 (2 × 10^5 cells/well) cells were plated onto poly-D-lysine-coated 24-well plates (Corning, New York, USA). Following a 2-day culture period, the uptake of 1 μM L-[^14C]leucine or L-[^14C]alanine was measured for 1 min in the absence or presence of non-radiolabeled test compounds at concentrations of 10, 30, and 100 μM. Radioactivity was quantified using a β-scintillation counter (LSC-3100; Aloka, Tokyo, Japan), and protein concentrations were determined with a Micro BCA Protein Assay Kit (Thermo Fisher Scientific, Rockford, IL). To calculate Ki values, the concentration-dependent uptake of L-[^14C]leucine or L-[^14C]alanine was analyzed in the presence and absence of test compounds[49]. The data were plotted against substrate concentration and fitted to Michaelis–Menten kinetics. Ki values were derived using nonlinear regression analysis with the enzyme kinetics inhibition module in GraphPad Prism software (Version 10.0.2; GraphPad Software Inc., San Diego, CA, USA).

[2] = target: T2, human LAT2 (Homo sapiens, UniProt Q9UHI5); assay: Inhibition of L-[14C]alanine uptake in HEK293-hLAT2 cells; type: cell-based
T2 construct: expressed in transfected cells
T2 sequence (Q9UHI5 1-535): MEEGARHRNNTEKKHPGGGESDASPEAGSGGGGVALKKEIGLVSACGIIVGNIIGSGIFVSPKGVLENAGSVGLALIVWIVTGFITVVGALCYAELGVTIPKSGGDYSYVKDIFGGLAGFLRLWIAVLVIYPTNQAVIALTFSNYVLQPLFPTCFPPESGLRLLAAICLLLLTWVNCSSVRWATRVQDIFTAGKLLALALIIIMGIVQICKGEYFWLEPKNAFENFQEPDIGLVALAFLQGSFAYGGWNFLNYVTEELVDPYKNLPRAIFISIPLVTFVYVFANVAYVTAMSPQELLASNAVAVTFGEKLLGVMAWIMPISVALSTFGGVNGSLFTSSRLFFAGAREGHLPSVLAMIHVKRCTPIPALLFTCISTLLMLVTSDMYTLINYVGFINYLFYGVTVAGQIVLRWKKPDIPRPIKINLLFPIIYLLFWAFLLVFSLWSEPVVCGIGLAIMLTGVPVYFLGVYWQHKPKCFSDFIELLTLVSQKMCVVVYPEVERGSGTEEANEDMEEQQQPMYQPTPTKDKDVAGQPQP
T2 sequence (P08195 1-529 partner): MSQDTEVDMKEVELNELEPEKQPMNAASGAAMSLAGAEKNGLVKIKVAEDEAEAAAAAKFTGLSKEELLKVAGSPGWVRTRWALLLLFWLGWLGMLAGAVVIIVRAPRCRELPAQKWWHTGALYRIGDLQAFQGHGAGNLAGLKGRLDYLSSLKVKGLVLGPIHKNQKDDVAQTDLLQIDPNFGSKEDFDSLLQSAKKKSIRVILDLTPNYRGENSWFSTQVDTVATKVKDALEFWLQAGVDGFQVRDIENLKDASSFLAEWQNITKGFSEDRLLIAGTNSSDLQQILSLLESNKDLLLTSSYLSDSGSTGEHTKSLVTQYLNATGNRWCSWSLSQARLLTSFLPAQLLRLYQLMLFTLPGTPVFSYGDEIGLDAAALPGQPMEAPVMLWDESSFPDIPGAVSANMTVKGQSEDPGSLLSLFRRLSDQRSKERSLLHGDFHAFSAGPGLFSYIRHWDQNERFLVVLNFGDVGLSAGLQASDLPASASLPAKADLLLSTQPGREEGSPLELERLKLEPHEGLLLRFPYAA
Excerpt: as §1, §2

[3] = Tissue accumulation (plasma, tumor, small intestine) in B16-F10 tumor-bearing mice, HPLC; type: in vivo
Protocol: Female C57BL/6J mice were subcutaneously injected with 2 × 10^6 B16-F10 cells. The cells were prepared in a mixture containing a 1:1 volume ratio of phosphate-buffered saline (PBS) and Matrigel (Corning, New York, USA), with the total injection volume being 200 μL, administered into the dorsal flank. Tumor growth was measured bi-daily using calipers until tumors reached a size of approximately 300 ~ 500 mm^3, at which point they were deemed palpable. […] Blood samples were collected at 30 and 60 min post-administration. Then both the tumors and small intestines were excised and weighed for subsequent analysis by HPLC.
(§3) HPLC analyses were conducted as previously described. In brief, tumors and small intestines were homogenized in ice-cold PBS (3 times the tissue weight, v/w). The homogenates were then centrifuged at 15,000 ×g for 40 min at 4 °C. A 10 μL aliquot of the tissue supernatant or plasma was mixed with 190 μL of acetonitrile (MeCN) to precipitate proteins. This mixture was subsequently centrifuged at 15,000 ×g for 30 min at 4 °C. The resulting supernatant (100 μL) was dried, and the residue was reconstituted in 20 μL of 400 mM sodium borate (pH 8.0). Finally, 5 μL of 40 mM 4-fluoro-7-nitro-2,1,3-benzoxadiazole (NBD-F) in MeCN was added for fluorescence derivatization. HPLC analysis was carried out using a NANOSPACE SI-2 HPLC system (Shiseido, Tokyo, Japan) equipped with a fluorescence detector. […] The mobile phase consisted of MeCN, water, and trifluoroacetic acid (TFA) in a 27.5:72.5:0.05 (v/v/v) ratio, delivered at a flow rate of 200 μL/min.

[4] = Plasma concentration-time profile in normal mice after intravenous administration; type: in vivo; conditions: C57BL/6J mice, i.v., 15, 30, 60, 120 min; 2-F-Tyr 15.6 mg/kg, bicyclic-Phe 15 mg/kg
Protocol: The blood samples were collected at 15, 30, 60, and 120 min post-administration into lithium heparin-coated tubes (BD, New Jersey, USA) and then centrifuged at 1,500 ×g for 10 min at 23 °C. The resulting plasma was stored at −80 °C pending analysis by HPLC.
as §3

[5] = system: LAT1; design: method as in PMID 1559223; conditions: in situ brain perfusion; cited from earlier work

N[C@]1(C(=O)O)CCc2ccccc2C1 [bicyclic-Phe, (R)-2-amino-1,2,3,4-tetrahydro-2-naphthoic acid]
Inhibition of LAT1-mediated L-[14C]leucine uptake (in words, rank order) ([1]; 1 μM L-[14C]leucine, 1 min, compounds at 10, 30, 100 μM): inhibit | Ki ([1]; Ki for LAT1 calculated at 100 μM of compound, HEK293-hLAT1, inhibitor at 100 μM): 78.2 ± 13.9 µM | Ki ([1]; Ki for LAT1 calculated at 300 μM of compound, HEK293-hLAT1, inhibitor at 300 μM): 66.7 ± 7.08 µM | Mode of inhibition of LAT1 (Lineweaver–Burk plot) ([1]; L-[14C]leucine 50, 100, 200, 400 μM): competitive manner | Ki ([1]; HEK293-hLAT1, mean ± S.E.M., n = 3–4, read-out: Ki (μM) LAT1): 78.2 ± 13.9 µM | Ki ratio (LAT2/LAT1) ([1]; LAT1 selectivity, LAT2 Ki over LAT1 Ki): 47.98 | Inhibition of LAT2-mediated L-[14C]alanine uptake (in words, rank order) ([2]; 1 μM L-[14C]alanine, 1 min, compounds at 10, 30, 100 μM): minimal inhibition | Ki ([2]; L-[14C]alanine uptake, HEK293-hLAT2, mean ± S.E.M., n = 3–4, read-out: Ki (μM) LAT2): 3750 ± 740 µM | Ki ([2]; as quoted in the discussion, read-out: Ki value for LAT2): ~3800 µM | Small intestine-to-plasma ratio (I/P) (in words) ([3]; 30 and 60 min after i.v., equimolar doses): significantly lower than that for 2-F-Tyr | Concentration in small intestine compared with plasma ([3]; i.v., normalized to tissue weight / plasma volume): lower than in plasma | Concentration in tumor compared with plasma ([3]; i.v., normalized to tissue weight / plasma volume, 2-F-Tyr at 60 min): higher than in plasma | Plasma concentration (in words) [4]: consistently showing higher levels than 2-F-Tyr | Vmax of BBB transport relative to melphalan [5]: approximately seven times higher
